This test deals with T1, human β3-AR (Homo sapiens, UniProt P13945).
T1 construct: expressed in transfected cells; host or cells: CHO (Chinese hamster ovary) cells, stably transfected
Kind of test: cAMP functional agonist assay (LANCE TR-FRET) in CHO cells expressing cloned human β3-AR. The settings on record: for pEC50: CHO cells stably expressing cloned human β3-adrenoceptor, cAMP release, read-out: Human β3-AR Agonism EC50; for Fold drop in potency vs. 2-chloropyridine analog: EC50 of comparative example divided by EC50 of corresponding 2-chloropyridine compound; for Human β3-AR Agonist Activity (%): percent maximum activation relative to isoproterenol. It is filed as cell-based.

SMILES strings stand for the structures. pEC50: −log10 of the molar value.

T1 sequence (P13945 whole entry): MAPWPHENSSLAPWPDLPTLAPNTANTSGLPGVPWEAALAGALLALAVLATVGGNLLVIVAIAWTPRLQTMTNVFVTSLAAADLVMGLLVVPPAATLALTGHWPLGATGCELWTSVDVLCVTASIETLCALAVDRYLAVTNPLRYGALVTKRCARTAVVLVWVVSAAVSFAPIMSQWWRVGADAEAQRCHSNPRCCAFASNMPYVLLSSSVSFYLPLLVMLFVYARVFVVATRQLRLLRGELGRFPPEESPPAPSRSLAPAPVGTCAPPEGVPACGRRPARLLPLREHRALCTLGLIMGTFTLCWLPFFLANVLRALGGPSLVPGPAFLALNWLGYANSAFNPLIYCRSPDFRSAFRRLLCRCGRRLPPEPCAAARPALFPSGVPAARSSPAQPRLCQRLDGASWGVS

By pEC50 is commonly meant the negative decadic logarithm of the EC50, by convention in mol/L. For the molecule `CN(Cc1ccc(Cl)nc1)C(=O)c1ccc(C[C@@H]2CC[C@H]([C@H](O)c3ccc(F)cc3)N2)cc1` [Example 30-F, N-((6-chloropyridin-3-yl)methyl)-4-(((2S,5R)-5-((R)-(4-fluorophenyl)(hydroxy)methyl)pyrrolidin-2-yl)methyl)-N-methylbenzamide], the pEC50 was 7.11, the “Fold drop in potency vs. 2-chloropyridine analog” value was 24.4 fold and the “Human β3-AR Agonist Activity (%)” value was found to be 101%.
Regarding `CN(Cc1cccc(=O)[nH]1)C(=O)c1ccc(C[C@@H]2CC[C@H]([C@H](O)c3ccc(Cl)cc3)N2)cc1` [Example 20-G], the negative-log EC50 (pEC50) is 8.22, the “Fold drop in potency vs. 2-chloropyridine analog” value turned out to be 4.5 fold and the “Human β3-AR Agonist Activity (%)” value is on record as 99%.
Regarding `CN(Cc1cccnc1)C(=O)c1ccc(C[C@@H]2CC[C@H]([C@H](O)c3ccc(NC4CC4)nc3)N2)cc1` [Example 21-N, 4-(((2S,5R)-5-((R)-(6-(cyclopropylamino)pyridin-3-yl)(hydroxy)methyl)pyrrolidin-2-yl)methyl)-N-methyl-N-(pyridin-3-ylmethyl)benzamide], the pEC50 was at most 5.00, the “Fold drop in potency vs. 2-chloropyridine analog” value is recorded as over 2300 fold and the “Human β3-AR Agonist Activity (%)” value is 27%.
Consider `CN(Cc1cnccn1)C(=O)c1ccc(C[C@@H]2CC[C@H]([C@H](O)c3ccc(Cl)nc3)N2)cc1` [Example 40-A, 4-(((2S,5R)-5-((R)-(6-chloropyridin-3-yl)(hydroxy)methyl)pyrrolidin-2-yl)methyl)-N-methyl-N-(pyrazin-2-ylmethyl)benzamide], for which the pEC50 is 7.92 and the “Human β3-AR Agonist Activity (%)” value is listed as 111%.
For the molecule `COC(=O)c1cncc(CN(C)C(=O)c2ccc(C[C@@H]3CC[C@H]([C@H](O)c4ccc(Cl)nc4)N3)cc2)c1` [Example 34-A, Methyl 5-((4-(((2S,5R)-5-((R)-(6-chloropyridin-3-yl)(hydroxy)methyl)pyrrolidin-2-yl)methyl)-N-methylbenzamido)methyl)nicotinate], the pEC50 was 8.22 and the “Human β3-AR Agonist Activity (%)” value is 90%.
On to `Cc1cc(CN(C)C(=O)c2ccc(C[C@@H]3CC[C@H]([C@H](O)c4cncc(F)c4)N3)cc2)[nH]n1` [Example 4-R, 4-(((2S,5R)-5-((R)-(5-fluoropyridin-3-yl)(hydroxy)methyl)pyrrolidin-2-yl)methyl)-N-methyl-N-((5-methyl-1H-pyrazol-3-yl)methyl)benzamide], for which the pEC50 was 7.35, the “Fold drop in potency vs. 2-chloropyridine analog” value is on record as 8.3 fold and the “Human β3-AR Agonist Activity (%)” value amounted to 101%.
As to `Cc1cc(CN(C)C(=O)c2ccc(C[C@@H]3CC[C@H]([C@H](O)c4ccc(Cl)cc4)N3)cc2)n[nH]1` [Example 4-G, 4-(((2S,5R)-5-((R)-(4-chlorophenyl)(hydroxy)methyl)pyrrolidin-2-yl)methyl)-N-methyl-N-((5-methyl-1H-pyrazol-3-yl)methyl)benzamide], the negative-log EC50 (pEC50) is 8.40, the “Fold drop in potency vs. 2-chloropyridine analog” value came to 0.8 fold and the “Human β3-AR Agonist Activity (%)” value is listed as 95%.
Take `COCc1cc(CN(C)C(=O)c2ccc(C[C@@H]3CC[C@H]([C@H](O)c4ccc(Cl)nc4)N3)cc2)n[nH]1` [Example 9-A, 4-(((2S,5R)-5-((R)-(6-chloropyridin-3-yl)(hydroxy)methyl)pyrrolidin-2-yl)methyl)-N-((5-(methoxymethyl)-1H-pyrazol-3-yl)methyl)-N-methylbenzamide]: the pEC50 is 8.52 and the “Human β3-AR Agonist Activity (%)” value is given as 93%.
On the same counts, the results for `CC(C)c1cc(CN(C)C(=O)c2ccc(C[C@@H]3CC[C@H]([C@H](O)c4ccc(Cl)nc4)N3)cc2)n[nH]1` [Example 7-A, 4-(((2S,5R)-5-((R)-(6-chloropyridin-3-yl)(hydroxy)methyl)pyrrolidin-2-yl)methyl)-N-((5-isopropyl-1H-pyrazol-3-yl)methyl)-N-methylbenzamide] are 7.23 and 95%.
`CN(Cc1cc(C(F)(F)F)[nH]n1)C(=O)c1ccc(C[C@@H]2CC[C@H]([C@H](O)c3cccnc3)N2)cc1` [Example 10-H, 4-(((2S,5R)-5-((R)-hydroxy(pyridin-3-yl)methyl)pyrrolidin-2-yl)methyl)-N-methyl-N-((5-(trifluoromethyl)-1H-pyrazol-3-yl)methyl)benzamide]: the pEC50 was 7.66, the “Fold drop in potency vs. 2-chloropyridine analog” value is listed as 13.9 fold and the “Human β3-AR Agonist Activity (%)” value came out at 98%.
For `COC(=O)c1cncc(CN(C)C(=O)c2ccc(C[C@@H]3CC[C@H]([C@H](O)c4ccc(Cl)cc4)N3)cc2)c1` [Example 34-G, Methyl 5-((4-(((2S,5R)-5-((R)-(4-chlorophenyl)(hydroxy)methyl)pyrrolidin-2-yl)methyl)-N-methylbenzamido)methyl)nicotinate], the pEC50 is 7.74, the “Fold drop in potency vs. 2-chloropyridine analog” value is reported as 2.9 fold and the “Human β3-AR Agonist Activity (%)” value came to 90%.
On the same counts, the results for `CN(C(=O)c1ccc(C[C@@H]2CC[C@H]([C@H](O)c3ccccc3)N2)cc1)C1CCc2ncccc21` (stereo partly drawn) [Example 24-B, N-(6,7-dihydro-5H-cyclopenta[b]pyridin-5-yl)-4-(((2S,5R)-5-((R)-hydroxy(phenyl)methyl)pyrrolidin-2-yl)methyl)-N-methylbenzamide] are 6.64, 5.4 fold and 106%.
`CCc1[nH]nc(CN(C)C(=O)c2ccc(C[C@@H]3CC[C@H]([C@H](O)c4ccc(Cl)nc4)N3)cc2)c1C` [Example 12-A, 4-(((2S,5R)-5-((R)-(6-chloropyridin-3-yl)(hydroxy)methyl)pyrrolidin-2-yl)methyl)-N-((5-ethyl-4-methyl-1H-pyrazol-3-yl)methyl)-N-methylbenzamide]: the pEC50 was 7.89 and the “Human β3-AR Agonist Activity (%)” value was 95%.
For `COCc1cc(CN(C)C(=O)c2ccc(C[C@@H]3CC[C@H]([C@H](O)c4cccnc4)N3)cc2)n[nH]1` [Example 9-H, 4-(((2S,5R)-5-((R)-hydroxy(pyridin-3-yl)methyl)pyrrolidin-2-yl)methyl)-N-((5-(methoxymethyl)-1H-pyrazol-3-yl)methyl)-N-methylbenzamide], the pEC50 was 6.98, the “Fold drop in potency vs. 2-chloropyridine analog” value stood at 38.1 fold and the “Human β3-AR Agonist Activity (%)” value is reported as 101%.
As for `CN(Cc1cccc(=O)[nH]1)C(=O)c1ccc(C[C@@H]2CC[C@H]([C@H](O)c3ccc(Cl)nc3)N2)cc1` [Example 20-A, 4-(((2S,5R)-5-((R)-(6-chloropyridin-3-yl)(hydroxy)methyl)pyrrolidin-2-yl)methyl)-N-methyl-N-((6-oxo-1,6-dihydropyridin-2-yl)methyl)benzamide], the pEC50 was 8.30 and the “Human β3-AR Agonist Activity (%)” value is listed as 108%.
Take `CN(Cc1cccnc1)C(=O)c1ccc(C[C@@H]2CC[C@H]([C@H](O)c3ccc(Cl)nc3)N2)cc1` [Example 21-A, 4-(((2S,5R)-5-((R)-(6-chloropyridin-3-yl)(hydroxy)methyl)pyrrolidin-2-yl)methyl)-N-methyl-N-(pyridin-3-ylmethyl)benzamide]: the negative-log EC50 (pEC50) was 8.40 and the “Human β3-AR Agonist Activity (%)” value was determined as 102%.
Regarding `CN(Cc1n[nH]c2c1CCCC2)C(=O)c1ccc(C[C@@H]2CC[C@H]([C@H](O)c3cccnc3)N2)cc1` [Example 14-H, 4-(((2S,5R)-5-((R)-hydroxy(pyridin-3-yl)methyl)pyrrolidin-2-yl)methyl)-N-methyl-N-((4,5,6,7-tetrahydro-1H-indazol-3-yl)methyl)benzamide], the pEC50 was 7.26, the “Fold drop in potency vs. 2-chloropyridine analog” value amounted to 19.5 fold and the “Human β3-AR Agonist Activity (%)” value worked out at 101%.
With `CN(Cc1cccnc1)C(=O)c1ccc(C[C@@H]2CC[C@H]([C@H](O)c3cncc(F)c3)N2)cc1` [Example 21-R, 4-(((2S,5R)-5-((R)-(5-fluoropyridin-3-yl)(hydroxy)methyl)pyrrolidin-2-yl)methyl)-N-methyl-N-(pyridin-3-ylmethyl)benzamide], the pEC50 was 7.24, the “Fold drop in potency vs. 2-chloropyridine analog” value is on record as 13.3 fold and the “Human β3-AR Agonist Activity (%)” value was determined as 91%.
In the case of `COc1ccc(CN(C)C(=O)c2ccc(C[C@@H]3CC[C@H]([C@H](O)c4ccccc4)N3)cc2)cn1` [Example 29-B, 4-(((2S,5R)-5-((R)-hydroxy(phenyl)methyl)pyrrolidin-2-yl)methyl)-N-((6-methoxypyridin-3-yl)methyl)-N-methylbenzamide], the pEC50 was 7.07, the “Fold drop in potency vs. 2-chloropyridine analog” value came out at 5.1 fold and the “Human β3-AR Agonist Activity (%)” value was 99%.
Consider `Cc1cc(CN(C)C(=O)c2ccc(C[C@@H]3CC[C@H]([C@H](O)c4ccc(Cl)nc4)N3)cc2)n[nH]1` [Example 4-A, 4-(((2S,5R)-5-((R)-(6-chloropyridin-3-yl)(hydroxy)methyl)pyrrolidin-2-yl)methyl)-N-methyl-N-((5-methyl-1H-pyrazol-3-yl)methyl)benzamide], for which the pEC50 was 8.30 and the “Human β3-AR Agonist Activity (%)” value is given as 104%.
Regarding `CN(Cc1ccnnc1)C(=O)c1ccc(C[C@@H]2CC[C@H]([C@H](O)c3ccc(Cl)nc3)N2)cc1` [Example 42-A, 4-(((2S,5R)-5-((R)-(6-chloropyridin-3-yl)(hydroxy)methyl)pyrrolidin-2-yl)methyl)-N-methyl-N-(pyridazin-4-ylmethyl)benzamide], the pEC50 is 8.52 and the “Human β3-AR Agonist Activity (%)” value is 94%.
Regarding `CCOc1cc(CN(C)C(=O)c2ccc(C[C@@H]3CC[C@H]([C@H](O)c4ccccc4)N3)cc2)n[nH]1` [Example 11-B, N-((5-ethoxy-1H-pyrazol-3-yl)methyl)-4-(((2S,5R)-5-((R)-hydroxy(phenyl)methyl)pyrrolidin-2-yl)methyl)-N-methylbenzamide], the pEC50 was 7.59, the “Fold drop in potency vs. 2-chloropyridine analog” value came out at 4.0 fold and the “Human β3-AR Agonist Activity (%)” value came to 116%.

Values taken from US20160235727A1, “NOVEL PYRROLIDINE DERIVED BETA 3 ADRENERGIC RECEPTOR AGONISTS” (Merck Sharp & Dohme Corp., priority 2013, published 2016).
